Experimental data taken from ChEMBL document CHEMBL4385643, “Design of a brain-penetrant CDK4/6 inhibitor for glioblastoma” (Bioorg Med Chem Lett, 2019).

Assays:
[1] = target: Tyrosine-protein kinase Lck (Homo sapiens) (UniProt P06239); assay: Inhibition of recombinant full length human His-tagged LCK expressed in baculovirus expression system at 0.1 uM using tyrosine-2 peptide as substrate incubated for 60 mins by Z'-LYTE assay relative to control
[2] = target: Beta-adrenergic receptor kinase 1 (Homo sapiens) (UniProt P25098); assay: Inhibition of recombinant full length human His-tagged GRK2 expressed in baculovirus expression system at 0.1 uM using serine/threonine-16 peptide as substrate incubated for 60 mins by Z'-LYTE assay relative to control
Sequence of Beta-adrenergic receptor kinase 1 (Homo sapiens) (P25098 whole entry, canonical isoform): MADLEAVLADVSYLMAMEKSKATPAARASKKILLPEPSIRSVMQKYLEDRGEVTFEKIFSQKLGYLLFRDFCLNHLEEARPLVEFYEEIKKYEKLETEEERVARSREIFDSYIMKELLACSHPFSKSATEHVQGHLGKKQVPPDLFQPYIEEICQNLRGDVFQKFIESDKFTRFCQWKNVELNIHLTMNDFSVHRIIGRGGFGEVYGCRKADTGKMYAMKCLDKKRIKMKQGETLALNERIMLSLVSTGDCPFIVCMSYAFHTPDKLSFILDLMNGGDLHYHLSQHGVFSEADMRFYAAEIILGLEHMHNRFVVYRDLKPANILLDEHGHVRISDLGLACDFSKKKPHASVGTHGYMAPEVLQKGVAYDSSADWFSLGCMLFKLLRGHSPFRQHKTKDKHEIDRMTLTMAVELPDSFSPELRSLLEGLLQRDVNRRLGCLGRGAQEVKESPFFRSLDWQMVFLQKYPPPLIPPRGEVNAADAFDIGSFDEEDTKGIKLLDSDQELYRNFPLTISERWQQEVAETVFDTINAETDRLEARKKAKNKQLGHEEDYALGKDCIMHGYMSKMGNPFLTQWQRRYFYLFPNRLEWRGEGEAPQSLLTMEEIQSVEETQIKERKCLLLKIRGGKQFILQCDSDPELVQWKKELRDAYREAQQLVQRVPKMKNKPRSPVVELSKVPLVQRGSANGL

[3] = target: Phosphatidylinositol 4,5-bisphosphate 3-kinase catalytic subunit alpha isoform (Homo sapiens) (UniProt P42336); assay: Inhibition of recombinant full length human GST-tagged PI3Kalpha expressed in baculovirus expression system at 0.1 uM using PI Lipid Kinase as substrate incubated for 60 mins by Adapta assay relative to control
[4] = target: Cyclin-dependent kinase 13/Cyclin-K (Homo sapiens) (UniProt Q14004+O75909); assay: Inhibition of tracer 236 binding to human GST/His-tagged CDK13/Cyclin K at 0.1 uM; format: protein-complex assay
[5] = target: Ribosomal protein S6 kinase beta-1 (Homo sapiens) (UniProt P23443); assay: Inhibition of recombinant human GST-tagged p70S6K catalytic domain (1 to 421 residues) expressed in baculovirus expression system at 0.1 uM using serine/threonine-7 peptide as substrate incubated for 60 mins by Z'-LYTE assay relative to control
[6] = target: Dual specificity tyrosine-phosphorylation-regulated kinase 1A (Homo sapiens) (UniProt Q13627); assay: Inhibition of recombinant full length human GST-tagged DYRK1A expressed in baculovirus expression system at 0.1 uM using serine/threonine-18 peptide as substrate incubated for 60 mins by Z'-LYTE assay relative to control
[7] = target: Mast/stem cell growth factor receptor Kit (Homo sapiens) (UniProt P10721); assay: Inhibition of recombinant human His-tagged KIT (544 to 976 residues) expressed in baculovirus expression system at 0.1 uM using tyrosine-6 peptide as substrate incubated for 60 mins by Z'-LYTE assay relative to control
[8] = target: Cyclin-C/Cyclin-dependent kinase 19 (Homo sapiens) (UniProt Q9BWU1+P24863); assay: Inhibition of tracer 236 binding to recombinant human GST/His-tagged CDK11/Cyclin C catalytic domain (CDK11: 1 to 502, Cyclin C: 1 to 283) expressed in insect cells expression system at 0.1 uM measured after 60 mins by Lanthascreen assay relative to control
[9] = target: Serine/threonine-protein kinase Sgk3 (Homo sapiens) (UniProt Q96BR1); assay: Inhibition of recombinant human GST-tagged SGK3 catalytic domain (87 to 496 residues) expressed in baculovirus expression system at 0.1 uM using serine/threonine-6 peptide as substrate incubated for 60 mins by Z'-LYTE assay relative to control
Sequence of Serine/threonine-protein kinase Sgk3 (Homo sapiens) (Q96BR1 whole entry, the tested form may be a part): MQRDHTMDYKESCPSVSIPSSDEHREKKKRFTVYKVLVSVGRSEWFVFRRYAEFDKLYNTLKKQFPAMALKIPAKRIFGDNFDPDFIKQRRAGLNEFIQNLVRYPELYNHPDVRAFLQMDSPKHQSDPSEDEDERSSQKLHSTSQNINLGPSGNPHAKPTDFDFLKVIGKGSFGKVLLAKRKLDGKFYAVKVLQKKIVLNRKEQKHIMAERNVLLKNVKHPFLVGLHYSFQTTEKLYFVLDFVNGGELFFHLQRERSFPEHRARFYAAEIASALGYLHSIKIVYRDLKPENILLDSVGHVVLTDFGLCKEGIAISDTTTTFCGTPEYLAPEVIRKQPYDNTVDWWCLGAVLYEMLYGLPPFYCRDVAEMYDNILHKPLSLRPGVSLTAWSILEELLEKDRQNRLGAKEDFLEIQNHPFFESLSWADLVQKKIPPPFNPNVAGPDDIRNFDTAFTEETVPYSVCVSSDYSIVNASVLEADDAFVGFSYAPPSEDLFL

[10] = target: Ephrin type-A receptor 7 (Homo sapiens) (UniProt Q15375); assay: Inhibition of tracer 236 binding to recombinant human His-tagged EPHA7 (579 to 998 residues) expressed in baculovirus expression system at 0.1 uM measured after 60 mins by Lanthascreen assay relative to control
[11] = target: Fibroblast growth factor receptor 4 (Homo sapiens) (UniProt P22455); assay: Inhibition of recombinant human His-tagged FGFR4 catalytic domain ([…]) expressed in baculovirus expression system at 0.1 uM using tyrosine-4 peptide as substrate incubated for 60 mins by Z'-LYTE assay relative to control
Sequence of Fibroblast growth factor receptor 4 (Homo sapiens) (P22455 22-802 limits assumed): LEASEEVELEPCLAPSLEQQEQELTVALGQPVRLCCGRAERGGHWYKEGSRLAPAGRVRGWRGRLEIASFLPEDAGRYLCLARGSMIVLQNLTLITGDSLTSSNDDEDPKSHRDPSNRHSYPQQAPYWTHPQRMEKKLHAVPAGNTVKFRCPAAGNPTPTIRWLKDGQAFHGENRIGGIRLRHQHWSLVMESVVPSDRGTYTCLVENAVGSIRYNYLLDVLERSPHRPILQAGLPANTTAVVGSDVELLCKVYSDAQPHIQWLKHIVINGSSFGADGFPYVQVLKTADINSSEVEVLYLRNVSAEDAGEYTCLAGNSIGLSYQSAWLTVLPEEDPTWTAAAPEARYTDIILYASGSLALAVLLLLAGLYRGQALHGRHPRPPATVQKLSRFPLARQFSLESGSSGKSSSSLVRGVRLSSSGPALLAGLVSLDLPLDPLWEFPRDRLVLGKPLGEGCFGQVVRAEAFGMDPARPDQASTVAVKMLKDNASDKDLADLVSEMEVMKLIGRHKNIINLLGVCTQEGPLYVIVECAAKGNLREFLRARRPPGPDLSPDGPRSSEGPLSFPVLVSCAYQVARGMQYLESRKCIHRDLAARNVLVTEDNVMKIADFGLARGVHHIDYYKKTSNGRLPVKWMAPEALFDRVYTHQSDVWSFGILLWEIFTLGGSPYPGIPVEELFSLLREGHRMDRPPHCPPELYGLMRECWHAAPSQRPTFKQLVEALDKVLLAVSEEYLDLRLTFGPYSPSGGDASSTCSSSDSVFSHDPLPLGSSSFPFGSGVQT

[12] = target: Tyrosine-protein kinase FRK (Homo sapiens) (UniProt P42685); assay: Inhibition of recombinant full length human GST-tagged FRK expressed in baculovirus expression system at 0.1 uM using tyrosine-1 peptide as substrate incubated for 60 mins by Z'-LYTE assay relative to control
[13] = target: Serine/threonine-protein kinase WNK2 (Homo sapiens) (UniProt Q9Y3S1); assay: Inhibition of tracer 1710 binding to recombinant human His-tagged WNK2 catalytic domain (166 to 489 residues) expressed in baculovirus expression system at 0.1 uM measured after 60 mins by Lanthascreen assay relative to control
[14] = target: Mitogen-activated protein kinase kinase kinase kinase 5 (Homo sapiens) (UniProt Q9Y4K4); assay: Inhibition of recombinant full length human GST-tagged KHS1 expressed in baculovirus expression system at 0.1 uM using serine/threonine-7 peptide as substrate incubated for 60 mins by Z'-LYTE assay relative to control
[15] = target: cGMP-dependent protein kinase 1 (Homo sapiens) (UniProt Q13976); assay: Inhibition of recombinant full length human GST-tagged PKG1 alpha expressed in baculovirus expression system at 0.1 uM using CREBtide as substrate 60 mins by Lanthascreen assay relative to control
Sequence of cGMP-dependent protein kinase 1 (Homo sapiens) (Q13976 whole entry): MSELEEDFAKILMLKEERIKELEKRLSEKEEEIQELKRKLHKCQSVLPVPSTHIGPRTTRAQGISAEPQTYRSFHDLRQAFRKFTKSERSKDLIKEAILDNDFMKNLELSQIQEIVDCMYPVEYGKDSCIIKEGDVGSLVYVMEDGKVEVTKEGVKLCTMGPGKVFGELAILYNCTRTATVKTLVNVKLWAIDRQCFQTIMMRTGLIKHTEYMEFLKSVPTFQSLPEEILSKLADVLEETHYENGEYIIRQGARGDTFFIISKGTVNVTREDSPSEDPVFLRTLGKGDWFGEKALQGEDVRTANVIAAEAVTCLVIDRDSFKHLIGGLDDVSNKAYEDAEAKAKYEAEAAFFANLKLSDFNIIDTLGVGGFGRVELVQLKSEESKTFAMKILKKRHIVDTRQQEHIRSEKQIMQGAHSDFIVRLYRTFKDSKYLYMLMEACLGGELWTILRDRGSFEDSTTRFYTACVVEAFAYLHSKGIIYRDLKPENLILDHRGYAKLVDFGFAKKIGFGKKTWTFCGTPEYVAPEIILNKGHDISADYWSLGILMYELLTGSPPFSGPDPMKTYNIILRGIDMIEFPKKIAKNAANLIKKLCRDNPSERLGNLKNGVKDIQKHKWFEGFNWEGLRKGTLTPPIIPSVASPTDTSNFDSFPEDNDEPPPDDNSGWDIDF

[16] = target: Death-associated protein kinase 3 (Homo sapiens) (UniProt O43293); assay: Inhibition of recombinant full length human GST-tagged ZIPK expressed in baculovirus expression system at 0.1 uM using serine/threonine-13 peptide as substrate incubated for 60 mins by Z'-LYTE assay relative to control
[17] = target: High affinity nerve growth factor receptor (Homo sapiens) (UniProt P04629); assay: Inhibition of recombinant human His-tagged TRKA catalytic domain (441 to 796 residues) expressed in baculovirus expression system at 0.1 uM using tyrosine-1 peptide as substrate incubated for 60 mins by Z'-LYTE assay relative to control
[18] = target: MAP kinase-activated protein kinase 3 (Homo sapiens) (UniProt Q16644); assay: Inhibition of recombinant full length human His-tagged MAPKAPK3 expressed in baculovirus expression system at 0.1 uM using serine/threonine-4 peptide as substrate incubated for 60 mins by Z'-LYTE assay relative to control
Sequence of MAP kinase-activated protein kinase 3 (Homo sapiens) (Q16644 whole entry, looked up): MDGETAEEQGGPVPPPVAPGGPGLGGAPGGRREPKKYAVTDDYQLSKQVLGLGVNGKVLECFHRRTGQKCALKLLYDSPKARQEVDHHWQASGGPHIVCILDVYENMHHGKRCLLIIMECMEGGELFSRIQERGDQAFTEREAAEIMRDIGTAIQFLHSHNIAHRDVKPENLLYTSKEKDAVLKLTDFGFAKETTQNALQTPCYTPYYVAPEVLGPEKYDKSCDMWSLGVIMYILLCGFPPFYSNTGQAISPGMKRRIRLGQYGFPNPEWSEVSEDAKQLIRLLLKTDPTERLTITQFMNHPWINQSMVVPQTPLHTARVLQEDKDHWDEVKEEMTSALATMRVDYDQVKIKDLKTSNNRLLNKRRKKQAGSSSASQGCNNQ

[19] = target: Serine/threonine-protein kinase PAK 3 (Homo sapiens) (UniProt O75914); assay: Inhibition of recombinant full length human His-tagged PAK3 expressed in baculovirus expression system at 0.1 uM using serine/threonine-20 peptide as substrate incubated for 60 mins by Z'-LYTE assay relative to control
[20] = target: Mitogen-activated protein kinase 13 (Homo sapiens) (UniProt O15264); assay: Inhibition of recombinant full length human His-tagged p38delta expressed in baculovirus expression system at 0.1 uM using serine/threonine-3 peptide as substrate incubated for 60 mins by Z'-LYTE assay relative to control
Sequence of Mitogen-activated protein kinase 13 (Homo sapiens) (O15264 whole entry): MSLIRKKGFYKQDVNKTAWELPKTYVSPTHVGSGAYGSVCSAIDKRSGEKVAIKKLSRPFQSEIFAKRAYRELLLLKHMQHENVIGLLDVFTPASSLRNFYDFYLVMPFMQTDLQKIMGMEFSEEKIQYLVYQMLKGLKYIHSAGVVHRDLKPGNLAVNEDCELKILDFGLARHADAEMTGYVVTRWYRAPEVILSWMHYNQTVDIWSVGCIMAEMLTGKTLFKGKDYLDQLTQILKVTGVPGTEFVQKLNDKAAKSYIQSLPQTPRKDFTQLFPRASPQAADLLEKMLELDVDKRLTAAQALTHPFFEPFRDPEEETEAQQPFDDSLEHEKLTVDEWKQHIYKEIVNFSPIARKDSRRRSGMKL

[21] = target: MAP kinase-activated protein kinase 5 (Homo sapiens) (UniProt Q8IW41); assay: Inhibition of recombinant full length human His-tagged PRAK expressed in baculovirus expression system at 0.1 uM using serine/threonine-4 peptide as substrate incubated for 60 mins by Z'-LYTE assay relative to control
Sequence of MAP kinase-activated protein kinase 5 (Homo sapiens) (Q8IW41 whole entry): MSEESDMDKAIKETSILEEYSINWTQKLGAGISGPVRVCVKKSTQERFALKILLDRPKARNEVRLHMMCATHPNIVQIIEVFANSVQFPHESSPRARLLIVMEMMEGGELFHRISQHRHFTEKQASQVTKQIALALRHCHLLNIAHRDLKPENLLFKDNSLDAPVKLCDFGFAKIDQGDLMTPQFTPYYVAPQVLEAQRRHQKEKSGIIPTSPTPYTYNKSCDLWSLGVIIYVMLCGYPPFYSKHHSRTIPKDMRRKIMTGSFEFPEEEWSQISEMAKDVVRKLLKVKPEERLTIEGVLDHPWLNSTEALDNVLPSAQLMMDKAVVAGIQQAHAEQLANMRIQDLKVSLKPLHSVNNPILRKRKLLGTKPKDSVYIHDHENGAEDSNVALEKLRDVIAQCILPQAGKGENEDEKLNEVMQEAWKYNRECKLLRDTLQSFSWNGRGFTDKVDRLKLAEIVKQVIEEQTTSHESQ

[22] = target: Serine/threonine-protein kinase Nek6 (Homo sapiens) (UniProt Q9HC98); assay: Inhibition of recombinant full length human GST-tagged NEK6 expressed in insect expression system at 0.1 uM using serine/threonine-22 peptide as substrate incubated for 60 mins by Z'-LYTE assay relative to control
Sequence of Serine/threonine-protein kinase Nek6 (Homo sapiens) (Q9HC98 whole entry): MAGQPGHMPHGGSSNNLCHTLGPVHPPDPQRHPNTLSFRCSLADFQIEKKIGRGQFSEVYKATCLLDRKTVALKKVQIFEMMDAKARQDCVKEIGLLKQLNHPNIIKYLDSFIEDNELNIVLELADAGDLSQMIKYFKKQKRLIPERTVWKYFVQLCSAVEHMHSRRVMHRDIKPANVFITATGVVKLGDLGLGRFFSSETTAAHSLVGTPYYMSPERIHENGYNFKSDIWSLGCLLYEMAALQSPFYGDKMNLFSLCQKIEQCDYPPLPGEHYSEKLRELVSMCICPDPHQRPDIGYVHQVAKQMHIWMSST

[23] = target: Serine/threonine-protein kinase B-raf (Homo sapiens) (UniProt P15056); assay: Inhibition of recombinant full length human GST-tagged BRAF expressed in baculovirus expression system at 0.1 uM using serine/threonine-3 peptide as substrate incubated for 60 mins by Z'-LYTE assay relative to control
Sequence of Serine/threonine-protein kinase B-raf (Homo sapiens) (P15056 whole entry): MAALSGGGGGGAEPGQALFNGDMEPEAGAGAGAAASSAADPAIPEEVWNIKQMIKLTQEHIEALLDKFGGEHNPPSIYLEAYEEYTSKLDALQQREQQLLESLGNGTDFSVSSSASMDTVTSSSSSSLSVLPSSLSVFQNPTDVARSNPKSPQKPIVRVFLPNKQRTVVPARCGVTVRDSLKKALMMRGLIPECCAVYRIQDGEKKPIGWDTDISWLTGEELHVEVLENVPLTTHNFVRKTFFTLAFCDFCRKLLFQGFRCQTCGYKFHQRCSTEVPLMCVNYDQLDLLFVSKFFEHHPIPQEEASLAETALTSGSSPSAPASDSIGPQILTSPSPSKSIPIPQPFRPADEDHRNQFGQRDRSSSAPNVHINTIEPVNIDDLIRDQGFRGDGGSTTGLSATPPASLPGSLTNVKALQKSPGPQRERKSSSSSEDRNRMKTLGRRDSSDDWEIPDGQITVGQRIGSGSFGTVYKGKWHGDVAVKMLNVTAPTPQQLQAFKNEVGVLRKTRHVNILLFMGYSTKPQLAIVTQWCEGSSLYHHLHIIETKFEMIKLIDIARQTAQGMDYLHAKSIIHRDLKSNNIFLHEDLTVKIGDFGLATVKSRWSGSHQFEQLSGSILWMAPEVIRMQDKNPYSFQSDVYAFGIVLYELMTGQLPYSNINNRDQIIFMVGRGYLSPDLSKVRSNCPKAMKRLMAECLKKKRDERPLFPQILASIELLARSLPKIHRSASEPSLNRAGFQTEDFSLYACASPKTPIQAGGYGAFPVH

Row | SMILES | inhibition [1] [%] | inhibition [2] [%] | inhibition [3] [%] | inhibition [4] [%] | inhibition [5] [%] | inhibition [6] [%] | inhibition [7] [%] | inhibition [8] [%] | inhibition [9] [%] | inhibition [10] [%] | inhibition [11] [%] | inhibition [12] [%] | inhibition [13] [%] | inhibition [14] [%] | inhibition [15] [%] | inhibition [16] [%] | inhibition [17] [%] | inhibition [18] [%] | inhibition [19] [%] | inhibition [20] [%] | further results
1 | CCN1CC2(C1)CN(c1ccc(Nc3ncc(F)c(-c4cnn5c4[C@H](C)CCCC5)n3)nc1)C2 | 3.5 | 0.5 | 1.5 | 50 | 6 | 26.5 | -0.5 | 81 | 7 | 5.5 | 4 | 1.5 | 0.5 | 22 | 6 | 6 | 20 | 1 | 8 | 3.5 | inhibition [21]: 13.5%; inhibition [22]: 3.5%; inhibition [23]: 4%
2 | CCN1CCN(Cc2ccc(Nc3ncc(F)c(-c4cc(F)c5nc(C)n(C(C)C)c5c4)n3)nc2)CC1 [ABEMACICLIB] | 12.5 | 0 | 4 | 38 | 5 | 92.5 | 0 | 19 | 12 | 11.7 | 11 | 5.5 | 2.7 | 27.3 | 1.5 | 54.5 | 31 | 9 | 11.4 | 7 | inhibition [21]: 5%; inhibition [22]: 3.5%; inhibition [23]: 4.5%
